Drawing on the supplement of paper PMC10307832, this text covers relative viability for 1 cell line.

Common to all, as to test: relative viability (nuclei count vs DMSO), 5 days (fraction); higher = more cells survive
Compound in experiment [1]: C[C@@H](N)c1ccc(C(=O)Nc2ccnc3[nH]ccc23)cc1 + Cc1nc(NC(=O)N2CCC[C@H]2C(N)=O)sc1-c1ccnc(C(C)(C)C(F)(F)F)c1 [Alpelisib] (partner 2 µM)
The method, boiled down: (§1)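 Cells from lung cancer lines were seeded into 1536-well plates and, one day later, dosed by pin tool. Treatments were either a single drug or a fixed dose of an anchor drug with five library-drug doses (not always all listed) in √10 steps. After 5 days, nuclei were stained in a one-step fixation (final 0.05% Triton X-100, 1% formaldehyde, 1 ug/ml Hoechst) and counted on 4× images, and relative viability is the treated-to-vehicle nuclei ratio, as the median of duplicate plates.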

Compound in experiment [2]: C1CNCCC1C2=CC(=NN2)C3=CC=NC=C3 + CCNC(=O)c1noc(-c2cc(C(C)C)c(O)cc2O)c1-c1ccc(CN2CCOCC2)cc1 [Luminespib] (partner 0.01 µM)
The method, boiled down: as §1

Compound in experiment [3]: C1CNCCC1C2=CC(=NN2)C3=CC=NC=C3 + Cc1nc(Nc2ncc(C(=O)Nc3c(C)cccc3Cl)s2)cc(N2CCN(CCO)CC2)n1 [Dasatinib] (partner 0.075 µM)
The method, boiled down: as §1

Compound in experiment [4]: C[C@@H](N)c1ccc(C(=O)Nc2ccnc3[nH]ccc23)cc1 + CC1(C)CCC(c2ccc(Cl)cc2)=C(CN2CCN(c3ccc(C(=O)NS(=O)(=O)c4ccc(N[C@H](CCN5CCOCC5)CSc5ccccc5)c(S(=O)(=O)C(F)(F)F)c4)cc3)CC2)C1 [Navitoclax] (partner 0.5 µM)
The method, boiled down: as §1

For the cell line UMC-11, the relative viability in experiment [1] (first compound 0.04 µM) was 1.12; in experiment [1] (first compound 0.1265 µM), 1.05; in experiment [1] (first compound 0.4 µM), 1.14; in experiment [1] (first compound 1.265 µM) it was 0.997; in experiment [1] (first compound 4 µM), 0.467; in experiment [2] (first compound 0.08 µM), 0.959. In addition, the relative viability in experiment [2] (first compound 0.8 µM) was 1.19; in experiment [2] (first compound 2.53 µM), 1.05; in experiment [2] (first compound 8 µM), 1.14; in experiment [3] (first compound 0.08 µM) it was 0.498; in experiment [3] (first compound 0.8 µM) it was 0.543; in experiment [3] (first compound 2.53 µM) it was 0.488. Further, the relative viability in experiment [3] (first compound 8 µM) was 0.521; in experiment [4] (first compound 0.04 µM), 0.318; in experiment [4] (first compound 0.1265 µM), 0.323; in experiment [4] (first compound 0.4 µM) it was 0.332; in experiment [4] (first compound 1.265 µM) it was 0.27; in experiment [4] (first compound 4 µM) it was 0.211.
